Source: ChEMBL document CHEMBL1201861, “Genomics of Drug Sensitity in Cancer screening data, Wellcome Trust Sanger Institute”

What was measured:
SK-PN-DW = assay: cells; type: functional, cell-based, Homo sapiens; conditions: Homo sapiens, SK-PN-DW;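 note: growth inhibition measured with a viability assay on these cells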
Description: SANGER: Inhibition of human SK-PN-DW cell growth in a cell viability assay.

DU-4475 = assay: cells; type: functional, cell-based, Homo sapiens; conditions: Homo sapiens, DU-4475
Description: SANGER: Inhibition of human DU-4475 cell growth in a cell viability assay.

Daoy = assay: cells; type: functional, cell-based, Homo sapiens; conditions: Homo sapiens, Daoy;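 note: daoy cell growth inhibition, read out as cell viability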
Description: SANGER: Inhibition of human Daoy cell growth in a cell viability assay.

OE33 = assay: cells; type: functional, cell-based, Homo sapiens; conditions: Homo sapiens, OE33;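 note: growth inhibition of human OE33 cells, measured by a cell viability assay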
Description: SANGER: Inhibition of human OE33 cell growth in a cell viability assay.

NCI-H1563 = assay: cells; type: functional, cell-based, Homo sapiens; conditions: Homo sapiens, NCI-H1563;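 note: growth inhibition of human NCI-H1563 cells, read out with a cell viability assay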
Description: SANGER: Inhibition of human NCI-H1563 cell growth in a cell viability assay.

no-10 = assay: cells; type: functional, cell-based, Homo sapiens; conditions: Homo sapiens;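 note: growth inhibition of no-10 cells, read out with a cell viability assay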
Description: SANGER: Inhibition of human no-10 cell growth in a cell viability assay.

SU-DHL-1 = assay: SANGER: Inhibition of human SU-DHL-1 cell growth in a cell viability assay.; type: functional, cell-based; conditions: Homo sapiens, SU-DHL-1
LS-411N = assay: cells; type: functional, cell-based, Homo sapiens; conditions: Homo sapiens, LS-411N
SNU-16 = assay: cells; type: functional, cell-based, Homo sapiens; conditions: Homo sapiens, SNU-16;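 note: growth inhibition of human SNU-16 cells, determined with a cell viability readout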
Description: SANGER: Inhibition of human NCI-SNU-16 cell growth in a cell viability assay.

KGN = assay: cells; type: functional, cell-based, Homo sapiens; conditions: Homo sapiens, KGN;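 note: growth inhibition of KGN cells, read out with a cell viability assay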
Description: SANGER: Inhibition of human KGN cell growth in a cell viability assay.

EFM-19 = assay: cells; type: functional, cell-based, Homo sapiens; conditions: Homo sapiens, EFM-19;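 note: growth inhibition of human EFM-19 cells, measured in a cell viability assay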
Description: SANGER: Inhibition of human EFM-19 cell growth in a cell viability assay.

S-117 = assay: cells; type: functional, cell-based, Homo sapiens; conditions: Homo sapiens, S-117
Description: SANGER: Inhibition of human S-117 cell growth in a cell viability assay.

GCIY = assay: cells; type: functional, cell-based, Homo sapiens; conditions: Homo sapiens, GCIY;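 note: growth inhibition of the human GCIY cell line, read out by a cell viability assay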
Description: SANGER: Inhibition of human GCIY cell growth in a cell viability assay.

EW-16 = assay: cells; type: functional, cell-based, Homo sapiens; conditions: Homo sapiens, EW-16;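 note: growth inhibition of human EW-16 cells, read out as cell viability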
Description: SANGER: Inhibition of human EW-16 cell growth in a cell viability assay.

KYSE-140 = assay: cells; type: functional, cell-based, Homo sapiens; conditions: Homo sapiens, KYSE-140;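 note: cell viability assay measuring growth inhibition in human KYSE-140 cells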
Description: SANGER: Inhibition of human KYSE-140 cell growth in a cell viability assay.

769-P = assay: cells; type: functional, cell-based, Homo sapiens; conditions: Homo sapiens, 769-P
Description: SANGER: Inhibition of human 769-P cell growth in a cell viability assay.

JAR = assay: cells; type: functional, cell-based, Homo sapiens; conditions: Homo sapiens, JAR;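 note: growth inhibition of human JAR cells determined with a cell viability assay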
Description: SANGER: Inhibition of human JAR cell growth in a cell viability assay.

DMS-153 = assay: cells; type: functional, cell-based, Homo sapiens; conditions: Homo sapiens, DMS-153
Description: SANGER: Inhibition of human DMS-153 cell growth in a cell viability assay.

C2BBe1 = assay: cells; type: functional, cell-based, Homo sapiens; conditions: Homo sapiens, C2BBe1;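 note: growth inhibition of C2BBe1 cells, read out through a viability assay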
Description: SANGER: Inhibition of human C2BBe1 cell growth in a cell viability assay.

NCI-H2171 = assay: cells; type: functional, cell-based, Homo sapiens; conditions: Homo sapiens, NCI-H2171;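 note: growth inhibition of human NCI-H2171 cells, read out by a cell viability assay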
Description: SANGER: Inhibition of human NCI-H2171 cell growth in a cell viability assay.

TYK-nu = assay: cells; type: functional, cell-based, Homo sapiens; conditions: Homo sapiens, TYK-nu;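 note: growth inhibition of human TYK-nu cells, read out by a cell viability assay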
Description: SANGER: Inhibition of human TYK-nu cell growth in a cell viability assay.

ES6 = assay: cells; type: functional, cell-based, Homo sapiens; conditions: Homo sapiens, ES6;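 note: growth inhibition of human ES6 cells, read out with a cell viability assay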
Description: SANGER: Inhibition of human ES6 cell growth in a cell viability assay.

NCI-H510A = assay: cells; type: functional, cell-based, Homo sapiens; conditions: Homo sapiens, NCI-H510A;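 note: growth inhibition of NCI-H510A cells, read out with a cell viability assay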
Description: SANGER: Inhibition of human NCI-H510A cell growth in a cell viability assay.

C32 = assay: cells; type: functional, cell-based, Homo sapiens; conditions: Homo sapiens, C32;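 note: cell viability assay, with IC50 reflecting inhibition of C32 cell growth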
Description: SANGER: Inhibition of human C32 cell growth in a cell viability assay.

C-33-A = assay: cells; type: functional, cell-based, Homo sapiens; conditions: Homo sapiens, C-33-A;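 note: cell viability assay measuring growth inhibition of C-33-A cells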
Description: SANGER: Inhibition of human C-33-A cell growth in a cell viability assay.

RCC10RGB = assay: cells; type: functional, cell-based, Homo sapiens; conditions: Homo sapiens, RCC10RGB;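 note: growth inhibition of human RCC10RGB cells, read out by a cell viability assay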
Description: SANGER: Inhibition of human RCC10RGB cell growth in a cell viability assay.

D-542MG = assay: cells; type: functional, cell-based, Homo sapiens; conditions: Homo sapiens, D-542MG
Description: SANGER: Inhibition of human D-542MG cell growth in a cell viability assay.

SCC-9 = assay: cells; type: functional, cell-based, Homo sapiens; conditions: Homo sapiens, SCC-9;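 note: Read-out is a cell viability assay, with values giving inhibition of cell growth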
Description: SANGER: Inhibition of human SCC-9 cell growth in a cell viability assay.

Calu-3 = assay: cells; type: functional, cell-based, Homo sapiens; conditions: Homo sapiens, Calu-3;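 note: growth inhibition of human Calu-3 cells, determined with a cell viability assay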
Description: SANGER: Inhibition of human Calu-3 cell growth in a cell viability assay.

SW1573 = assay: cells; type: functional, cell-based, Homo sapiens; conditions: Homo sapiens, SW1573;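 note: growth inhibition of SW1573 cells, read out with a cell viability assay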
Description: SANGER: Inhibition of human SW1573 cell growth in a cell viability assay.

P31-FUJ = assay: cells; type: functional, cell-based, Homo sapiens; conditions: Homo sapiens, P31-FUJ;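 note: growth inhibition of P31-FUJ cells, read out with a viability assay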
Description: SANGER: Inhibition of human P31-FUJ cell growth in a cell viability assay.

TE-8 = assay: cells; type: functional, cell-based, Homo sapiens; conditions: Homo sapiens, TE-8;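 note: growth inhibition of TE-8 cells, measured with a cell viability readout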
Description: SANGER: Inhibition of human TE-8 cell growth in a cell viability assay.

Ca-Ski = assay: cells; type: functional, cell-based, Homo sapiens; conditions: Homo sapiens, Ca-Ski;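 note: cell viability assay measuring inhibition of Ca-Ski cell growth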
Description: SANGER: Inhibition of human Ca-Ski cell growth in a cell viability assay.

NCI-H1522 = assay: cells; type: functional, cell-based, Homo sapiens; conditions: Homo sapiens, NCI-H1522;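 note: growth inhibition of NCI-H1522 cells, read out with a cell viability assay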
Description: SANGER: Inhibition of human NCI-H1522 cell growth in a cell viability assay.

AN3-CA = assay: cells; type: functional, cell-based, Homo sapiens; conditions: Homo sapiens, AN3-CA;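 note: growth inhibition of human AN3-CA cells measured by a cell viability assay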
Description: SANGER: Inhibition of human AN3-CA cell growth in a cell viability assay.

MC-CAR = assay: cells; type: functional, cell-based, Homo sapiens; conditions: Homo sapiens, MC-CAR;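 note: growth inhibition of the human MC-CAR cell line, read out by a cell viability assay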
Description: SANGER: Inhibition of human MC-CAR cell growth in a cell viability assay.

Hs-578T = assay: cells; type: functional, cell-based, Homo sapiens; conditions: Homo sapiens, Hs-578T
Description: SANGER: Inhibition of human Hs-578-T cell growth in a cell viability assay.

MDA-MB-231 = assay: cells; type: functional, cell-based, Homo sapiens; conditions: Homo sapiens, MDA-MB-231
Description: SANGER: Inhibition of human MDA-MB-231 cell growth in a cell viability assay.

HD-MY-Z = assay: cells; type: functional, cell-based, Homo sapiens; conditions: Homo sapiens, HD-MY-Z;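 note: growth inhibition of HD-MY-Z cells, read out with a cell viability assay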
Description: SANGER: Inhibition of human HD-MY-Z cell growth in a cell viability assay.

UO-31 = assay: cells; type: functional, cell-based, Homo sapiens; conditions: Homo sapiens, UO-31
Description: SANGER: Inhibition of human U031 cell growth in a cell viability assay.

COLO-684 = assay: cells; type: functional, cell-based, Homo sapiens; conditions: Homo sapiens, COLO-684
Description: SANGER: Inhibition of human COLO-684 cell growth in a cell viability assay.

HAL-01 = assay: cells; type: functional, cell-based, Homo sapiens; conditions: Homo sapiens, HAL-01;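 note: growth inhibition of human HAL-01 cells, read out with a cell viability assay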
Description: SANGER: Inhibition of human HAL-01 cell growth in a cell viability assay.

BEN = assay: cells; type: functional, cell-based, Homo sapiens; conditions: Homo sapiens, BEN;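 note: growth inhibition of the BEN cell line, read out with a cell viability assay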
Description: SANGER: Inhibition of human BEN cell growth in a cell viability assay.

BL-41 = assay: cells; type: functional, cell-based, Homo sapiens; conditions: Homo sapiens, BL-41;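 note: growth inhibition of human BL-41 cells, read out with a cell viability assay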
Description: SANGER: Inhibition of human BL-41 cell growth in a cell viability assay.

NCI-H2122 = assay: cells; type: functional, cell-based, Homo sapiens; conditions: Homo sapiens, NCI-H2122;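 note: growth inhibition of the cells, read out with a cell viability assay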
Description: SANGER: Inhibition of human NCI-H2122 cell growth in a cell viability assay.

NCI-H446 = assay: cells; type: functional, cell-based, Homo sapiens; conditions: Homo sapiens, NCI-H446;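 note: growth inhibition of NCI-H446 cells determined by a cell viability assay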
Description: SANGER: Inhibition of human NCI-H446 cell growth in a cell viability assay.

FTC-133 = assay: cells; type: functional, cell-based, Homo sapiens; conditions: Homo sapiens, FTC-133
PANC-08-13 = assay: cells; type: functional, cell-based, Homo sapiens; conditions: Homo sapiens, PANC-08-13
Description: SANGER: Inhibition of human PANC-08-13 cell growth in a cell viability assay.

SMILES: CCC/C=C/C=C/C(=O)O[C@H]1/C(=C/C(=O)OC)C[C@H]2C[C@H]([C@@H](C)O)OC(=O)C[C@H](O)C[C@@H]3C[C@H](OC(C)=O)C(C)(C)[C@](O)(C[C@@H]4C/C(=C/C(=O)OC)C[C@H](/C=C/C(C)(C)[C@]1(O)O2)O4)O3 [BRYOSTATIN 1]
- IC50 (SK-PN-DW): > 8 nM
- IC50 (DU-4475): > 8 nM
- IC50 (Daoy): > 8 nM
- IC50 (OE33): > 8 nM
- IC50 (NCI-H1563): > 8 nM
- IC50 (no-10): > 8 nM
- IC50 (SU-DHL-1): > 8 nM
- IC50 (LS-411N): > 8 nM
- IC50 (SNU-16): > 8 nM
- IC50 (KGN): > 8 nM
- IC50 (EFM-19): > 8 nM
- IC50 (S-117): 5.92 nM
- IC50 (GCIY): > 8 nM
- IC50 (EW-16): > 8 nM
- IC50 (KYSE-140): > 8 nM
- IC50 (769-P): > 8 nM
- IC50 (JAR): > 8 nM
- IC50 (DMS-153): > 8 nM
- IC50 (C2BBe1): > 8 nM
- IC50 (NCI-H2171): > 8 nM
- IC50 (TYK-nu): > 8 nM
- IC50 (ES6): > 8 nM
- IC50 (NCI-H510A): > 8 nM
- IC50 (C32): > 8 nM
- IC50 (C-33-A): > 8 nM
- IC50 (RCC10RGB): > 8 nM
- IC50 (D-542MG): 7.56 nM
- IC50 (SCC-9): > 8 nM
- IC50 (Calu-3): > 8 nM
- IC50 (SW1573): > 8 nM
- IC50 (P31-FUJ): > 8 nM
- IC50 (TE-8): > 8 nM
- IC50 (Ca-Ski): > 8 nM
- IC50 (NCI-H1522): > 8 nM
- IC50 (AN3-CA): > 8 nM
- IC50 (MC-CAR): > 8 nM
- IC50 (Hs-578T): > 8 nM
- IC50 (MDA-MB-231): > 8 nM
- IC50 (HD-MY-Z): > 8 nM
- IC50 (UO-31): > 8 nM
- IC50 (COLO-684): > 8 nM
- IC50 (HAL-01): > 8 nM
- IC50 (BEN): > 8 nM
- IC50 (BL-41): > 8 nM
- IC50 (NCI-H2122): > 8 nM
- IC50 (NCI-H446): > 8 nM
- IC50 (FTC-133): > 8 nM
- IC50 (PANC-08-13): > 8 nM

SMILES: COc1cccc2c1C(=O)c1c(O)c3c(c(O)c1C2=O)C[C@@](O)(C(=O)CO)C[C@@H]3O[C@H]1C[C@H](N)[C@H](O)[C@H](C)O1 [DOXORUBICIN]
- IC50 (SK-PN-DW): 25.7 nM
- IC50 (DU-4475): 12.1 nM
- IC50 (Daoy): 8.07 nM
- IC50 (OE33): 426 nM
- IC50 (NCI-H1563): 556 nM
- IC50 (no-10): 160 nM
- IC50 (SU-DHL-1): 103 nM
- IC50 (LS-411N): 99.1 nM
- IC50 (SNU-16): > 1020 nM
- IC50 (KGN): 6.34 nM
- IC50 (EFM-19): 478 nM
- IC50 (S-117): > 1020 nM
- IC50 (GCIY): 725 nM
- IC50 (EW-16): 1.91 nM
- IC50 (KYSE-140): 50.4 nM
- IC50 (769-P): 20.8 nM
- IC50 (JAR): 626 nM
- IC50 (DMS-153): 698 nM
- IC50 (C2BBe1): > 1020 nM
- IC50 (NCI-H2171): 441 nM
- IC50 (TYK-nu): 663 nM
- IC50 (ES6): 137 nM
- IC50 (NCI-H510A): 360 nM
- IC50 (C32): > 1020 nM
- IC50 (C-33-A): 32.9 nM
- IC50 (RCC10RGB): > 1020 nM
- IC50 (D-542MG): > 1020 nM
- IC50 (SCC-9): > 1020 nM
- IC50 (Calu-3): 56 nM
- IC50 (SW1573): 82.8 nM
- IC50 (P31-FUJ): > 1020 nM
- IC50 (TE-8): 7.5 nM
- IC50 (Ca-Ski): 44.8 nM
- IC50 (NCI-H1522): > 1020 nM
- IC50 (AN3-CA): 72.3 nM
- IC50 (MC-CAR): 48.7 nM
- IC50 (Hs-578T): > 1020 nM
- IC50 (MDA-MB-231): > 1020 nM
- IC50 (HD-MY-Z): 273 nM
- IC50 (UO-31): 354 nM
- IC50 (COLO-684): 220 nM
- IC50 (HAL-01): 313 nM
- IC50 (BEN): > 1020 nM
- IC50 (BL-41): 122 nM
- IC50 (NCI-H2122): 37.9 nM
- IC50 (NCI-H446): > 1020 nM
- IC50 (FTC-133): 229 nM
- IC50 (PANC-08-13): > 1020 nM
